Data: patent US20140024527A1, “HERBICIDAL PYRAZINONES” (E I DU DE NEMOURS AND COMPANY, priority 2011, published 2014)

Columns and labels:
Assay in all cases: Test B postemergence
Format in all cases: in vivo
Conditions in all cases: scale 0 to 100
[1] = system: galium (Galium aparine)
Text: (§1) Seeds of plant species selected from blackgrass (Alopecurus myosuroides), downy bromegrass (Bromus tectorum), green foxtail (Setaria viridis), Italian ryegrass (Lolium multiflorum), wheat (Triticum aestivum), wild oat (Avena fatua), galium (Galium aparine), bermudagrass (Cynodon dactylon), Surinam grass (Brachiaria decumbens), cocklebur (Xanthium strumarium), corn (Zea mays), large crabgrass (Digitaria sanguinalis), woolly cupgrass (Eriochloa villosa), giant foxtail (Setaria faberii), goosegrass (Eleusine indica), johnsongrass (Sorghum halepense), kochia (Kochia scoparia), lambsquarters (Chenopodium album), morningglory (Ipomoea coccinea), yellow nutsedge (Cyperus esculentus), pigweed (Amaranthus retroflexus), ragweed (Ambrosia elatior), soybean (Glycine max), velvetleaf (Abutilon theophrasti), barley (Hordeum vulgare), canarygrass (Phalaris minor), chickweed (Stellaria media), deadnettle (Lamium amplexicaule) and windgrass (Apera spica-venti) were planted in pots containing Redi-Earth® planting medium (Scotts Company, Marysville, Ohio, USA) comprising spaghnum peat moss, vermiculite, wetting agent and starter nutrients and treated postemergence with test compounds formulated in a non-phytotoxic solvent mixture which included a surfactant. Plants ranged in height from 2 to 18 cm (1- to 4-leaf stage).
(§2) Treated plants and controls were maintained in a greenhouse for 13 to 15 days, after which time all species were compared to controls and visually evaluated. Plant response ratings, summarized in Table B, are based on a scale of 0 to 100 where 0 is no effect and 100 is complete control. A dash (-) response means no test result.

[2] = system: lambsquarters (Chenopodium album)
Text: as §1, §2

[3] = system: Italian ryegrass (Lolium multiflorum)
Text: as §1, §2

[4] = system: canarygrass (Phalaris minor)
Text: as §1, §2

[5] = system: chickweed (Stellaria media)
Text: as §1, §2

Row | Structure (SMILES) | Plant response rating, Galium ([1]; 31 g ai/ha) | Plant response rating, Galium ([1]; 62 g ai/ha) | Plant response rating, Galium ([1]; 125 g ai/ha) | Plant response rating, Galium ([1]; 250 g ai/ha) | Plant response rating, Lambsquarters ([2]; 31 g ai/ha) | Plant response rating, Lambsquarters ([2]; 62 g ai/ha) | Plant response rating, Lambsquarters ([2]; 125 g ai/ha) | Plant response rating, Lambsquarters ([2]; 250 g ai/ha) | Plant response rating, Ryegrass, Italian ([3]; 31 g ai/ha) | Plant response rating, Ryegrass, Italian ([3]; 62 g ai/ha) | Plant response rating, Ryegrass, Italian ([3]; 125 g ai/ha) | Plant response rating, Ryegrass, Italian ([3]; 250 g ai/ha) | Plant response rating, Canarygrass ([4]; 31 g ai/ha) | Plant response rating, Canarygrass ([4]; 62 g ai/ha) | Plant response rating, Canarygrass ([4]; 125 g ai/ha) | Plant response rating, Canarygrass ([4]; 250 g ai/ha) | Plant response rating, Chickweed ([5]; 31 g ai/ha) | Plant response rating, Chickweed ([5]; 62 g ai/ha) | Plant response rating, Chickweed ([5]; 125 g ai/ha) | Plant response rating, Chickweed ([5]; 250 g ai/ha)
1 | COCCn1c(-c2cc(F)cc(F)c2)c(Cl)nc(C(=O)C2=C(O)CCCC2=O)c1=O [Compound 6, 5-chloro-6-(3,5-difluorophenyl)-3-[(2-hydroxy-6-oxo-1-cyclohexen-1-yl)carbonyl]-1-(2-methoxyethyl)-2(1H)-pyrazinone] | 40 | 50 | 60 | 65 | 80 | 98 | 100 | 100 | 0 | 5 | 15 | 45 | 55 | 55 | 70 | 90 | 10 | 25 | 55 | 75
2 | COCCn1c(-c2cccc(F)c2)c(Cl)nc(C(=O)C2=C(O)CCCC2=O)c1=O [Compound 4, 5-chloro-6-(3-fluorophenyl)-3-[(2-hydroxy-6-oxo-1-cyclohexen-1-yl)carbonyl]-1-(2-methoxyethyl)-2(1H)pyrazinone] | 50 | 50 | – | – | 95 | 98 | 98 | 100 | 0 | 0 | 0 | 10 | 25 | 40 | 50 | 60 | 5 | 10 | 15 | 45
